# Reference: patent US7691624B2, “Cancer cell detecting devices” (Academia Sinica, priority 2003, dated 2010)
# Assays:
# NIH3T3 normal cells [1] = experiment: Cancer cell diagnosis in a tube; format: cell-based; details: NIH3T3 normal cells alone
# Description: (§1) NIH3T3 normal cells and a mixture of NIH3T3 normal cells and CL1-0 cancer cells with a cell ratio of 100:1 were respectively stained with Compound 2 and allowed to flow through a tube. The fluorescence emission upon excitation was monitored. […] In other words, this method can be used for early detection of cancer cells when cancer cells have a low concentration in a sample. For example, this method can be used to identify patients at risk of developing cancer, who should consider further examination by a physician.
# [2] = tested on: mixture of NIH3T3 normal cells and CL1-0 cancer cells with a cell ratio of 100:1; experiment: Cancer cell diagnosis in a tube; format: cell-based; details: NIH3T3:CL1-0 100:1
# Description: as §1
# DNA quadruplexes = experiment: CD analysis of DNA quadruplexes and their complexes; format: binding; details: eight DNA quadruplexes
# Description: Eight DNA quadruplexes and their complexes with compound 2 were subjected to CD analysis. CD spectra were averaged 10 scans on a Jasco J-715 spectropolarimeter with a 2 nm bandwidth. The scan speed was 50 nm/min and the step resolution was 0.2 nm.
# DNA duplex = experiment: Absorption analysis of compound/DNA complex; format: binding; details: in the presence of a DNA duplex
# Description: (§2) Each oligonucleotide described above was mixed with a solution of 10 mM Tris-HCl (pH 7.5) and 150 mM NaCl and was denatured at 90° C. for 2 min. The mixture was then cooled slowly to room temperature and stored at 4° C. for more than 2 days before use. A test compound was then added to this solution to form a compound/DNA complex. The resultant complex was subjected to absorption analysis using a Hitachi U3200 UV-visible spectrophotometer.
# (§3) The absorption spectra were taken for compound 2 and its complex with each oligonucleotide. […] In addition, the molar absorption coefficient decreased by ˜15% in the presence of a DNA duplex and ˜35% in the presence of a DNA quadruplex. 10 These spectra changes indicate that compound 2 binds to duplexes and quadruplexes.
# DNA quadruplex = experiment: Absorption analysis of compound/DNA complex; format: binding; details: in the presence of a DNA quadruplex
# Description: as §2, §3
# Oxy28 = experiment: Pre-stained gel electrophoresis selectivity and sensitivity assay; format: binding
# Description: (§4) Pre-stained gels were used for selectivity assays. A 0.1 μM compound 2 solution was initially incubated with 10 μM of different DNA solutions for 10 minutes. Gel electrophoresis was then carried out in an electric field of 100 V/cm at 4° C. for 6 hours. All of the pre-stained gels were photographed under 254 nm UV light using a Bio-Rad imaging detector.
# (§5) Gels pre-stained with compound 2 were used before running electrophoresis for AT, LD, GC, G10, LQ1, LQ2, LQ4, Tet12, Oxy12, Hum12, Apt, Oxy28, and Hum24. […] This third band is ascribed to be a linear tetramer of Tet12.
# (§6) To study the sensitivity of DNA detection using electrophoresis described above, a solution containing 0.1 μM of compound 2 was incubated with solutions containing 2.5 to 0.005 μM of Hum24. The mixtures were then subjected to electrophoresis.
# Tet12 = experiment: as above; format: binding
# Description: as §4, §5, §6
# LQ4 = experiment: as above; format: binding
# Description: as §4, §5, §6
# CL1-0 cancer cells [3] = experiment: Fluorescence of stained cells in eppendorf under LED, recorded by camera; format: cell-based, human; details: for Numbers of cells required to distinguish cancer cells and normal cells: Cancer cells (C) CL1-0
# Description: (§7) Human lung CL1-0 cancer cells or MRC-5 normal cells were incubated with 0.5 μM of Compound 2 and acridine orange (AO). After incubation in standard culture medium for 1 hour, the non-fixed cells were removed by washing the culture three times with phosphate buffered saline (PBS). The fixed cells were collected in an eppendorf by trypsinization. The eppendorf was centrifuged and then illuminated by an light emitting diode (LED) emitting excitation light with a center wavelength at 470 nm. A conventional digital camera was used to record the fluorescence. Table 1 summarizes the numbers of cells required to distinguish cancer cells from normal cells based on fluorescence emission of Compound 2 and AO recorded by a camera under different experimental conditions. Specifically, Compound 2 and AO were incubated with four different cells in eppendorf, i.e., MRC-5 normal cells, primary fibroblast, CL1-0 cancer cells, and HeLa cancer cells.
# MRC-5 normal cells = experiment: as above; format: cell-based, human; details: for Numbers of cells required to distinguish cancer cells and normal cells: Normal cells (M) MRC-5
# Description: as §7
# CL1-0 cancer cells [4] = experiment: Stained cells spread onto cover slip, fluorescent cells counted; format: cell-based
# Description: (§8) Further, the role of the ratio of the cells stained by Compound 2/AO in cancer diagnosis was studied. Specifically, CL1-0 cancer cells, NIH3T3 normal cells, and their 1:10 mixture were respectively stained with 0.02 μM AO and 1.5 μM Compound 2 for 5 minutes in eppendorfs. Each sample was then taken from the eppendorf and spread onto a cover slip. Fluorescence emissions were recorded by a color camera upon an LED illumination. […] A statistical histogram of the ratio of the cell stained with Compound 2/AO to the ratio of the CL1-0 cells to the sum of NIH3T3 and CL1-0 cells was plotted. Each spot on the histogram represented an average of 5-10 measurements from a single sample.
# NIH3T3 normal cells [5] = experiment: as above; format: cell-based; details: 1.5 μM Compound 2, 5 minutes, LED
# Description: as §8
# [6] = tested on: mixture of NIH3T3 normal cells and CL1-0 cancer cells with cell ratio of 10:1; experiment: as above; format: cell-based; details: 1.5 μM Compound 2, 5 minutes, LED
# Description: as §8
# Hum24 = experiment: Pre-stained gel electrophoresis selectivity and sensitivity assay; format: binding, human
# Description: as §4, §5, §6
# [7] = Fluorescence analysis in aqueous solution; format: physicochemical; details: λex≈430 nm, no DNA
# Description: Compound 2 was mixed with eleven DNAs and subjected to fluorescence analysis at λex≈430 nm, using a Hitachi F4010 spectrofluorimeter with a 2 nm bandwidth in a 1-cm cell. Fluorescence analysis was also carried out for compound 4 in the presence of Hum24. […] Further, the fluorescence peaks for a complex of compound 2 and a DNA duplex and a complex of compound 2 and a DNA quadruplex were at ˜550 nm and ˜575 nm, respectively.
# Oxy12 = experiment: Pre-stained gel electrophoresis selectivity assay; format: binding; details: 0.1 μM compound, 10 μM DNA, 254 nm UV light
# Description: as §4, §5
# [8] = Absorption analysis of the free compound; format: physicochemical; details: compound alone, before adding DNA
# Description: as §2, §3
# [9] = 10 mM Tris-HCl pH 7.5, 150 mM NaCl
# [10] = 0.1 μM compound solution, electrophoresis
# [11] = 0.1 μM compound, 10 μM DNA, 254 nm UV light
compound,measurement,setting,value
"C[n+]1ccc(C=Cc2ccc3[nH]c4ccc(C=Cc5cc[n+](C)cc5)cc4c3c2)cc1.[I-].[I-] [Compound 2, 3,6-bis-(2-(1-methylpyridinium-4-yl)-vinyl)-9H-carbazole diiodide]",fluorescence observed from stained cells flowing through a tube,NIH3T3 normal cells [1],only weak fluorescence
same,fluorescence observed from stained cells flowing through a tube,[2],bright fluorescence
same,changes in the CD spectra of DNA quadruplexes before and after compound binding,DNA quadruplexes,No appreciable changes
same,decrease of molar absorption coefficient,DNA duplex,~15%
same,absorption peak,DNA duplex; [9],~450 nm
same,decrease of molar absorption coefficient,DNA quadruplex,~35%
same,absorption peak,DNA quadruplex; [9],~460 nm
same,concentration of Oxy28 quadruplex detected,Oxy28; [10],0.1 µM
same,fluorescence band in pre-stained gel,Oxy28; [11],exhibited fluorescence bands
same,concentration of Tet12 quadruplex in which a small amount of linear tetramer is detected,Tet12; [10],0.25 µM
same,fluorescence band in pre-stained gel,Tet12; [11],only exhibited a third fluorescence band
same,concentration of LQ4 quadruplex detected,LQ4; [10],0.1 µM
same,fluorescence band in pre-stained gel,LQ4; [11],exhibited fluorescence bands
same,fluorescence emission in eppendorf,"CL1-0 cancer cells [3]; 0.5 μM, 1 hour, LED 470 nm",fluorescence emission was clearly observed
same,Numbers of cells required to distinguish cancer cells and normal cells,CL1-0 cancer cells [3]; 0.1 μM/30 min,"2,000 (C)"
same,Numbers of cells required to distinguish cancer cells and normal cells,CL1-0 cancer cells [3]; 0.5 μM/1 hr,"1,000 (C)"
same,fluorescence emission in eppendorf,"MRC-5 normal cells; 0.5 μM, 1 hour, LED 470 nm",no appreciable fluorescence emission was observed
same,Numbers of cells required to distinguish cancer cells and normal cells,MRC-5 normal cells; 0.1 μM/30 min,"10,000 (M)"
same,Numbers of cells required to distinguish cancer cells and normal cells,MRC-5 normal cells; 0.5 μM/1 hr,"8,000 (M)"
same,number of stained cells showing fluorescence,"CL1-0 cancer cells [4]; 1.5 μM Compound 2, 5 minutes, cover slip, LED",~22
same,fluorescence brightness in cancer cells versus normal cells,"CL1-0 cancer cells [4]; 1.5 μM, 5 minutes, CL1-0 versus NIH3T3, images",brighter fluorescence of Compound 2 in cancer cells than in normal cells
same,number of stained cells showing fluorescence,NIH3T3 normal cells [5],4
same,number of stained cells showing fluorescence,[6],7
same,concentration of Hum24 quadruplex detected,Hum24; [10],0.01 µM
same,fluorescence band in pre-stained gel,Hum24; [11],exhibited fluorescence bands
same,fluorescence in an aqueous solution,[7],weak
same,melting point,,> 300 °C
same,fluorescence band in pre-stained gel,Oxy12,exhibited fluorescence bands
same,absorption peak,[8],~435 nm
